The experiment relates to maize (Zea mays) r1-colored1 gene. Briefly: HDR editing of an endogenous gene in maize protoplasts (RNP + dsDNA donor template, MiSeq sequencing). As to conditions: 5 μM compound, 0.1% DMSO, B104 maize protoplasts, 48 hours at 26 degrees Celsius in the dark, average of triplicate samples; for Hypoxia Avg. (HDR): hypoxic conditions; for Normoxia Avg. (HDR): normoxic conditions. More on the design: unit not given here. In kind it is cell-based. The protocol: This example describes a second set of experiments which investigated the effects of the 81 small molecules previously identified in the “traffic light” screen (Example 1) on HDR efficiency in editing an endogenous gene, the maize (Zea mays) r1-colored1 gene with partial genomic sequence SEQ ID NO: 5. A ribonucleoprotein (RNP) was prepared with a guide RNA designed to edit the promoter located at positions 313-333 of SEQ ID NO:5. A donor template was provided as a dsDNA for HDR repair. The experiments were carried out with protoplasts produced from etiolated leaves of B104 maize grown in the dark for 11 days. The protoplasts were co-transfected with the RNP and donor template. Transfected cells were incubated 48 hours at 26 degrees Celsius in the dark under either normoxic or hypoxic conditions with the indicated negative controls, positive controls, and small molecules and then harvested. The negative controls comprised cells transfected with the RNP only (no donor template). DMSO controls comprised the RNP and donor template and DMSO at a final concentration of 0.5% by volume DMSO. The positive control was a mixture of KU-0060648 (CAS No. 881375-00-4; Fischer Scientific, Waltham, Mass., USA), STL127705 (7-[2-(3,4-dimethoxyphenyl)ethyl]amino-3-(3-fluorophenyl)pyrimido[4,5-d]pyrimidine-2,4(1H,3H)-dione); Vitas-M, Champaign, Ill., USA), NU7441 (CAS No. 503468-95-9; Fischer Scientific Waltham, Mass., USA), and SCR7 pyrazine (CAS No. 14892-97-8; Tocris, Minneapolis, Minn., USA) (all at a stock concentration of 5 mM in DMSO) that was provided to the protoplasts at a final concentration of each of the four compounds of 5 μM. Certain positive control compounds have been reported to increase CRISPR-mediated HDR (Robert et al. 2015; Chu et al., 2015). All of the tested small molecules were also provided to the protoplasts at a final concentration of 5 μM of the compound and a final DMSO concentration of 0.1% by volume. Genomic DNA was isolated using KAPA Pure Bead capture (Kapa Biosystem) and the isolated gDNA was used as the template for a PCR with PHUSION FLASH (ThermoFisher). Samples were cleaned with KAPA Pure Bead capture and Illumina libraries were prepared and sequenced on MiSeq.

Each structure is given as a SMILES string.

For the compound `CN(CCOc1ccc(CC2SC(=O)NC2=O)cc1)c1ccccn1` (stereo not drawn) [Rosiglitazone], the “Hypoxia Avg. (HDR)” value is on record as 4.97 and the “Normoxia Avg. (HDR)” value is on record as 3.20.

In the case of `Cc1oc(-c2ccccc2)nc1CCOc1ccc(CC2SC(=O)NC2=O)c2sccc12` (stereo not drawn) [Edaglitazone], the “Hypoxia Avg. (HDR)” value was found to be 6.28 and the “Normoxia Avg. (HDR)” value turned out to be 3.56.

On to `Cc1ccc(C(=O)N(CCCN)[C@@H](c2oc3cc(Cl)ccc3c(=O)c2Cc2ccccc2)C(C)C)cc1.Cl` [SB 743921 Hydrochloride], for which the “Hypoxia Avg. (HDR)” value was 2.97 and the “Normoxia Avg. (HDR)” value was found to be 4.76.

Regarding `CC(C)(C)c1ccc(S(=O)(=O)NCc2ccc(C(=O)Nc3cccnc3)cc2)cc1` [STF 31], the “Hypoxia Avg. (HDR)” value amounted to 5.00 and the “Normoxia Avg. (HDR)” value came to 0.40.

Take `Nc1nccc(-c2ccc3noc(-c4ccc(Cl)cc4)c3c2)n1` [PIM-1 Inhibitor 2]: the “Hypoxia Avg. (HDR)” value is given as 5.19 and the “Normoxia Avg. (HDR)” value is 1.37.

Turning to `c1ccc(-c2ccc(CNc3nc(-c4ccccn4)nnc3-c3ccccc3)cc2)cc1` [ML 228], the “Hypoxia Avg. (HDR)” value came to 4.49 and the “Normoxia Avg. (HDR)” value was 0.46.

In the case of `CC(=O)[C@H]1CC[C@H]2[C@@H]3CC[C@@H]4C[C@H](O)CC[C@]4(C)[C@H]3CC[C@]12C` [Pregnanolone], the “Hypoxia Avg. (HDR)” value was found to be 2.52 and the “Normoxia Avg. (HDR)” value is 4.43.

On to `CC(=O)NCCNc1cc(Cl)nn2c(-c3cccc(S(=O)(=O)N(C)C)c3)c(C)nc12` [MI 14], for which the “Hypoxia Avg. (HDR)” value amounted to 7.75 and the “Normoxia Avg. (HDR)” value was determined as 0.37.

With `O=C1N=C(NCc2cccs2)S/C1=C\c1ccc2ncccc2c1` [Ro 3306], the “Hypoxia Avg. (HDR)” value was 4.91 and the “Normoxia Avg. (HDR)” value was found to be 1.64.

`Nc1nc(Cl)nc2c1ncn2[C@@H]1O[C@H](CO)[C@@H](O)[C@H]1O` [2-Chloroadenosine]: the “Hypoxia Avg. (HDR)” value worked out at 5.00 and the “Normoxia Avg. (HDR)” value came to 2.45.

As to `CSc1nc(-c2ccc(F)cc2)c(-c2ccnc(NC(C)c3ccccc3)c2)[nH]1` (stereo not drawn) [ML 3403], the “Hypoxia Avg. (HDR)” value stood at 4.36 and the “Normoxia Avg. (HDR)” value is given as 1.47.

In the case of `O=S(=O)(NCCCCCCc1ccccc1)c1cccc2c(Cl)cccc12` [SC-9], the “Hypoxia Avg. (HDR)” value came out at 5.11 and the “Normoxia Avg. (HDR)” value is given as 2.67.

In the case of `CC(C)Cn1c(=O)n(C)c(=O)c2nc[nH]c21` [IBMX], the “Hypoxia Avg. (HDR)” value came to 4.23 and the “Normoxia Avg. (HDR)” value was 3.05.

With `CN(C)NC(=O)CCC(=O)O` [Daminozide], the “Hypoxia Avg. (HDR)” value was found to be 0.48 and the “Normoxia Avg. (HDR)” value came out at 4.57.

For `Cc1ccc(C(=O)N(CCCN)[C@@H](c2[nH]c3cc(Cl)ccc3c(=O)[n+]2Cc2ccccc2)C(C)C)cc1` [Ispinesib], the “Hypoxia Avg. (HDR)” value was determined as 4.04 and the “Normoxia Avg. (HDR)” value is listed as 3.36.

The values above are taken from patent publication US11746354B2, “Homology dependent repair genome editing” (Inari Agriculture Technology, Inc., priority 2019, dated 2023).
